Here are results for 21 compounds from patent US8017612B2, “Piperazine compound and use thereof as a HCV polymerase inhibitor” (priority 2006, dated 2011).

Structures can show the parent of a compound that is named as a salt. A value given as a limit tells only on which side of the number the result lay.

For assay [1], the target named is T1, HCV polymerase (NS5B) type 1a (Hepatitis C virus genotype 1a, UniProt P26664).
T1 construct: made in house; host or cells: Escherichia coli (by the 'similar method' of the 1b enzyme)
Nature of the assay: Assay of enzyme (HCV polymerase) inhibitory activity, type 1a enzyme. In kind it is biochemical, HCV type 1a (cloned from the blood of patients). The method in brief:
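His-tagged NS5B, C-terminal 47 residues deleted, type 1a at 1.5 μg/ml, with 5 μg/ml HCV 3′UTR substrate RNA, 50 μM ATP/GTP/CTP, 2 μM UTP plus [3H]UTP, pH 7.5 Tris, 5 mM MgCl2; 60 min at 25° C. TCA-precipitated RNA counted by scintillation; IC50 from radioactivity with vs. without compound.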

Assay [2] has as its target T2, HCV polymerase (NS5B) type 1b (Hepatitis C virus genotype 1b, UniProt P26663).
T2 construct: a region encoding NS5B (J Virol 1991 March, 65(3), 1105-13, 544 amino acids after deletion of 47 amino acids on the C-terminal); 6xHis (C); made in house; host or cells: Escherichia coli
Nature of the assay: Assay of enzyme (HCV polymerase) inhibitory activity, type 1b enzyme. In kind it is biochemical, HCV BK strain (type 1b). A digest of the protocol:
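His-tagged, C-terminally truncated NS5B (BK strain, 1b; 0.5 μg/ml) incubated with compound 60 min at 25 °C on 3′UTR-derived substrate RNA (5 μg/ml), 50 μM ATP/GTP/CTP, 2 μM UTP plus [3H]UTP, pH 7.5. Acid-precipitated RNA counted; IC50 from radioactivity with and without compound.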

[3] abbreviates: HCV polymerase inhibitory activity IC50, 1a, type 1a enzyme.
[4] abbreviates: HCV polymerase inhibitory activity IC50, 1b, type 1b enzyme.
Where [5] appears, read: HCV polymerase inhibitory activity (IC50), 1a, type 1a enzyme 1.5 μg/ml, 25° C., 60 min.
[6] abbreviates: HCV polymerase inhibitory activity (IC50), 1b, type 1b enzyme 0.5 μg/ml, 25° C., 60 min.

As for `COc1ccccc1CCNC(=O)[C@H]1CN(C(C)=O)CCN1S(=O)(=O)c1ccc(OC(F)(F)F)cc1` [Example 671, (R)-4-acetyl-1-(4-trifluoromethoxy-benzenesulfonyl)-piperazine-2-carboxylic acid [2-(2-methoxy-phenyl)-ethyl]-amide], the IC50 in assay [1] (setting [3]) and in assay [2] (setting [4]) was more than 1000 nM each time.
With `CCCc1ccc(CNC(=O)[C@H]2CN(c3ccc(C(N)=O)nn3)CCN2S(=O)(=O)c2ccc(OC(F)(F)F)cc2)cc1` [Example 547, 6-[(R)-3-(4-propyl-benzylcarbamoyl)-4-(4-trifluoromethoxy-benzenesulfonyl)-piperazin-1-yl]-pyridazine-3-carboxylic acid amide], the IC50 in assay [1] (setting [5]) and in assay [2] (setting [6]) was less than 100 nM in each case.
For `CC(C)c1ccc(CNC(=O)[C@H]2CN(c3nc(C(=O)O)cs3)CCN2S(=O)(=O)c2ccc(C(F)(F)F)cc2)cc1` [Example 244, 2-[(R)-3-(4-isopropyl-benzylcarbamoyl)-4-(4-trifluoromethyl-benzenesulfonyl)-piperazin-1-yl]-thiazole-4-carboxylic acid], the concentration for half-maximal inhibition (IC50) in assay [1] (setting [5]) and in assay [2] (setting [6]) was 100 to 1000 nM each time.
In the case of `CC(C)(C)c1ccc(CNC(=O)[C@H]2CN(c3nc4nc[nH]c(=O)c4s3)CCN2S(=O)(=O)c2ccc(OC(F)(F)F)cc2)cc1` [Example 602, (R)-4-(7-oxo-6,7-dihydro-thiazolo[4,5-d]pyrimidin-2-yl)-1-(4-trifluoromethoxy-benzenesulfonyl)-piperazine-2-carboxylic acid 4-tert-butyl-benzylamide], the concentration for half-maximal inhibition (IC50) in assay [1] (setting [5]) and in assay [2] (setting [6]) was less than 100 nM throughout.
Take `O=C(NCc1ccc(-c2cccs2)s1)[C@H]1CN(c2cnc3cncnc3n2)CCN1S(=O)(=O)c1ccc(OC(F)(F)F)cc1` [Example 659, (R)-4-pteridin-7-yl-1-(4-trifluoromethoxy-benzenesulfonyl)-piperazine-2-carboxylic acid ([2,2′]bithiophenyl-5-ylmethyl)-amide]: the IC50 in assay [1] (setting [5]) and in assay [2] (setting [6]) was less than 100 nM throughout.
Take `Cc1ncc2sc(N3CCN(S(=O)(=O)c4ccc(C(F)(F)F)cc4)[C@@H](C(=O)NCc4ccc(OC(F)F)cc4)C3)nc2n1` [Example 970, (R)-4-(5-methyl-thiazolo[4,5-d]pyrimidin-2-yl)-1-(4-trifluoromethyl-benzenesulfonyl)-piperazine-2-carboxylic acid 4-difluoromethoxy-benzylamide]: the IC50 in assay [1] (setting [3]) and in assay [2] (setting [4]) was less than 100 nM in each case.
On to `COc1ccc(S(=O)(=O)N2CCN(C(C)=O)C[C@@H]2C(=O)NCc2ccc(C(C)C)cc2)cc1C(C)(C)C` [Example 240, (R)-4-acetyl-1-(3-tert-butyl-4-methoxy-benzenesulfonyl)-piperazine-2-carboxylic acid 4-isopropyl-benzylamide], for which the IC50 in assay [1] (setting [5]) was 100 to 1000 nM; in assay [2] (setting [6]), less than 100 nM.
Consider `CC(=O)c1ncc2sc(N3CCN(S(=O)(=O)c4ccc(OC(F)(F)F)cc4)[C@@H](C(=O)NCc4ccc(OC(F)(F)F)cc4)C3)nc2n1` [Example 1048, (R)-4-(5-acetyl-thiazolo[4,5-d]pyrimidin-2-yl)-1-(4-trifluoromethoxy-benzenesulfonyl)-piperazine-2-carboxylic acid 4-trifluoromethoxy-benzylamide], for which the 50% inhibitory concentration (IC50) in assay [1] (setting [3]) and in assay [2] (setting [4]) was less than 100 nM throughout.
For `O=C(NCc1ccc(OC(F)(F)F)cc1)[C@H]1CN(c2nc3ncncc3s2)CCN1S(=O)(=O)c1ccc(OC(F)F)cc1` [Example 919, (R)-1-(4-difluoromethoxy-benzenesulfonyl)-4-thiazolo[4,5-d]pyrimidin-2-yl-piperazine-2-carboxylic acid 4-trifluoromethoxy-benzylamide], the IC50 in assay [1] (setting [3]) and in assay [2] (setting [4]) was less than 100 nM in each case.
Take `CCCc1ccc(CNC(=O)[C@H]2CN(c3cnc(N)cn3)CCN2S(=O)(=O)c2ccc(OC(F)(F)F)cc2)cc1` [Example 530, (R)-5′-amino-4-(4-trifluoromethoxy-benzenesulfonyl)-3,4,5,6-tetrahydro-2H-[1,2′]bipyrazinyl-3-carboxylic acid 4-propyl-benzylamide]: the results for the IC50 in assay [1] (setting [5]) and in assay [2] (setting [6]) were 100 to 1000 nM and less than 100 nM, respectively.
Regarding `O=C(NCc1ccc(OC(F)(F)F)cc1)[C@H]1CN(c2nc3nc(C4CC4)ncc3s2)CCN1S(=O)(=O)c1ccc(OC(F)(F)F)cc1` [Example 975, (R)-4-(5-cyclopropyl-thiazolo[4,5-d]pyrimidin-2-yl)-1-(4-trifluoromethoxy-benzenesulfonyl)-piperazine-2-carboxylic acid 4-trifluoromethoxy-benzylamide], the half-maximal inhibitory concentration (IC50) in assay [1] (setting [3]) and in assay [2] (setting [4]) was less than 100 nM throughout.
`O=C(NCc1ccc(OC(F)(F)F)cc1)[C@H]1CN(c2nn3cnnc3s2)CCN1S(=O)(=O)c1ccc(C(F)(F)F)cc1` [Example 953, (R)-4-[1,2,4]triazolo[3,4-b][1,3,4]thiadiazol-6-yl-1-(4-trifluoromethyl-benzenesulfonyl)-piperazine-2-carboxylic acid 4-trifluoromethoxy-benzylamide]: the IC50 in assay [1] (setting [3]) and in assay [2] (setting [4]) was less than 100 nM each time.
Take `CCC(F)(F)c1ccc(CNC(=O)[C@H]2CN(c3cnc4ccc(C(=O)O)cc4n3)CCN2S(=O)(=O)c2ccc(OC(F)(F)F)cc2)cc1` [Example 711, 3-[(R)-3-[4-(1,1-difluoro-propyl)-benzylcarbamoyl]-4-(4-trifluoromethoxy-benzenesulfonyl)-piperazin-1-yl]-quinoxaline-6-carboxylic acid]: the IC50 in assay [1] (setting [3]) is 100 to 1000 nM; in assay [2] (setting [4]) it was less than 100 nM.
Consider `N#Cc1ncc2sc(N3CCN(S(=O)(=O)c4ccc(C(F)(F)F)cc4)[C@@H](C(=O)NCc4ccc(OC(F)F)cc4)C3)nc2n1` [Example 1011, (R)-4-(5-cyano-thiazolo[4,5-d]pyrimidin-2-yl)-1-(4-trifluoromethyl-benzenesulfonyl)-piperazine-2-carboxylic acid 4-difluoromethoxy-benzylamide], for which the IC50 in assay [1] (setting [3]) and in assay [2] (setting [4]) was less than 100 nM throughout.
In the case of `CC(=O)NCC(=O)N1CCN(S(=O)(=O)c2ccc(C(F)(F)F)cc2)[C@@H](C(=O)NCc2ccc(C(C)C)cc2)C1` [Example 185, (R)-4-(2-acetylamino-acetyl)-1-(4-trifluoromethyl-benzenesulfonyl)-piperazine-2-carboxylic acid 4-isopropyl-benzylamide], the 50% inhibitory concentration (IC50) is more than 1000 nM in assay [1] (setting [5]) and 100 to 1000 nM in assay [2] (setting [6]).
For the compound `CCCc1ccc(CNC(=O)[C@H]2CN(c3nc(C)c(S(=O)(=O)N(C)C)s3)CCN2S(=O)(=O)c2ccc(OC(F)(F)F)cc2)cc1` [Example 829, (R)-4-(5-dimethylsulfamoyl-4-methyl-thiazol-2-yl)-1-(4-trifluoromethoxy-benzenesulfonyl)-piperazine-2-carboxylic acid 4-propyl-benzylamide], the 50% inhibitory concentration (IC50) was 100 to 1000 nM in assay [1] (setting [3]) and less than 100 nM in assay [2] (setting [4]).
In the case of `O=C(NCc1ccc(C2CC2)cc1)[C@H]1CN(c2nc3ncncc3s2)CCN1S(=O)(=O)c1ccc(OC(F)(F)F)cc1` [Example 976, (R)-4-thiazolo[4,5-d]pyrimidin-2-yl-1-(4-trifluoromethoxy-benzenesulfonyl)-piperazine-2-carboxylic acid 4-cyclopropyl-benzylamide], the IC50 in assay [1] (setting [3]) and in assay [2] (setting [4]) was less than 100 nM in each case.
As for `O=C(NCc1ccc(OC(F)(F)F)cc1)[C@H]1CN(c2nn3ccc(=O)nc3s2)CCN1S(=O)(=O)c1ccc(C(F)(F)F)cc1` [Example 1059, (R)-4-(7-oxo-7H-[1,3,4]thiadiazolo[3,2-a]pyrimidin-2-yl)-1-(4-trifluoromethyl-benzenesulfonyl)-piperazine-2-carboxylic acid 4-trifluoromethoxy-benzylamide], the IC50 in assay [1] (setting [3]) and in assay [2] (setting [4]) was less than 100 nM throughout.
With `CC(C)(C)c1ccc(CNC(=O)[C@H]2CN(C(=O)/C=C\C(=O)O)CCN2S(=O)(=O)c2ccc(OC(F)(F)F)cc2)cc1` [Example 665, (Z)-4-[(R)-3-(4-tert-butyl-benzylcarbamoyl)-4-(4-trifluoromethoxy-benzenesulfonyl)-piperazin-1-yl]-4-oxo-but-2-enoic acid], the half-maximal inhibitory concentration (IC50) in assay [1] (setting [3]) and in assay [2] (setting [4]) was more than 1000 nM throughout.
Consider `CC(C)c1ccc(CNC(=O)[C@H]2CN(C(=O)Cn3ncnn3)CCN2S(=O)(=O)c2ccc(C(F)(F)F)cc2)cc1` [Example 278, (R)-4-(2-tetrazol-2-yl-acetyl)-1-(4-trifluoromethyl-benzenesulfonyl)-piperazine-2-carboxylic acid 4-isopropyl-benzylamide], for which the 50% inhibitory concentration (IC50) in assay [1] (setting [5]) and in assay [2] (setting [6]) was less than 100 nM throughout.
In the case of `CC(=O)N1CCN(S(=O)(=O)c2cnc(Cl)c(Br)c2)C(C(=O)NCc2ccc(C(F)(F)F)cc2)C1` (stereo not drawn) [Example 69, 4-acetyl-1-(5-bromo-6-chloro-pyridine-3-sulfonyl)-piperazine-2-carboxylic acid 4-trifluoromethyl-benzylamide hydrochloride], the IC50 in assay [1] (setting [5]) and in assay [2] (setting [6]) was more than 1000 nM throughout.

What is called IC50 is the concentration needed to halve the response being measured. A lower IC50 goes with higher potency.
